Where two headings read alike, the source gives them in different places. A value given as a limit tells only on which side of the number the result lay.

The results in this text go back to patent US20230219965A1 (KSQ Therapeutics, Inc., priority 2020, published 2023).

Data set [1] is described as follows: ADME solubility determination in PBS at pH 2.0 and pH 7.4. It is filed as physicochemical. Conditions: phosphate buffered saline, 25 °C, thermodynamic from solid. An outline of the steps:
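Dried 10 mM DMSO stock residues taken up in PBS pH 7.4 or pH 2.0, shaken 24 h at 25° C. After centrifugation, supernatant quantified by LC-MS/MS against a standard of known concentration, with a dilution factor applied.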

The target of data set [2] is USP1/UAF1 enzyme (Homo sapiens, UniProt O94782). The data set is described as follows: USP1/UAF1 deubiquitination assay (ubiquitin-rhodamine 110 substrate). It is filed as biochemical. Conditions: read-out: USP1 IC50 (Ub-Rho). An outline of the steps:
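0.05 nM USP1/UAF1 was preincubated 10 min with compounds (dose response from 10 μM) in 50 mM Tris-HCl pH 7.8, 0.5 mM EDTA, 0.01% BSA, 1 mM DTT, 0.01% Tween-20. 150 nM ubiquitin-rhodamine 110 started the reaction, read kinetically 30 min at Ex480/Em540; IC50 by four-parameter fit versus no-enzyme and DMSO controls.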

The test system of data set [3] is Ub-PCNA levels in the nucleus of ES2 cells (USP1 activity). The data set is described as follows: ES2 Ub-PCNA immunofluorescence (IF) assay. It is filed as cell-based. The conditions noted are these: Homo sapiens, ES-2; ES2 cells, 3 hours, Ub-PCNA immunofluorescence; read-out: USP1 IC50 (Ub-PCNA). An outline of the steps: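 Cells plated overnight, then compound-treated for 3 h at 37° C (0.3% DMSO final), methanol-fixed and stained with anti-Ub-PCNA plus DAPI. Per-nucleus Ub-PCNA intensity imaged; cells above the 95% cutoff of untreated wells counted as positive, and percent positive cells used to derive AC50.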

Data set [4] is described as follows: Liver microsomal metabolic stability, rat liver microsomes (RLM). The conditions noted are these: rat, liver microsomes, t1/2 (min) in RLM, 1 μM compound, 1 mg/mL microsomes, NADPH.
A short description of data set [5]: Liver microsomal metabolic stability, human liver microsomes (HLM). The conditions noted are these: human, liver microsomes.
Where [6] appears, read: pH 2, aqueous buffer, PBS pH 2.0, 25° C., read-out: Solubility at pH 2.0.
[7] abbreviates: pH 7.4, aqueous buffer, PBS pH 7.4, 25° C., read-out: Solubility at pH 7.4.

Sequence of USP1/UAF1 enzyme (O94782 whole entry): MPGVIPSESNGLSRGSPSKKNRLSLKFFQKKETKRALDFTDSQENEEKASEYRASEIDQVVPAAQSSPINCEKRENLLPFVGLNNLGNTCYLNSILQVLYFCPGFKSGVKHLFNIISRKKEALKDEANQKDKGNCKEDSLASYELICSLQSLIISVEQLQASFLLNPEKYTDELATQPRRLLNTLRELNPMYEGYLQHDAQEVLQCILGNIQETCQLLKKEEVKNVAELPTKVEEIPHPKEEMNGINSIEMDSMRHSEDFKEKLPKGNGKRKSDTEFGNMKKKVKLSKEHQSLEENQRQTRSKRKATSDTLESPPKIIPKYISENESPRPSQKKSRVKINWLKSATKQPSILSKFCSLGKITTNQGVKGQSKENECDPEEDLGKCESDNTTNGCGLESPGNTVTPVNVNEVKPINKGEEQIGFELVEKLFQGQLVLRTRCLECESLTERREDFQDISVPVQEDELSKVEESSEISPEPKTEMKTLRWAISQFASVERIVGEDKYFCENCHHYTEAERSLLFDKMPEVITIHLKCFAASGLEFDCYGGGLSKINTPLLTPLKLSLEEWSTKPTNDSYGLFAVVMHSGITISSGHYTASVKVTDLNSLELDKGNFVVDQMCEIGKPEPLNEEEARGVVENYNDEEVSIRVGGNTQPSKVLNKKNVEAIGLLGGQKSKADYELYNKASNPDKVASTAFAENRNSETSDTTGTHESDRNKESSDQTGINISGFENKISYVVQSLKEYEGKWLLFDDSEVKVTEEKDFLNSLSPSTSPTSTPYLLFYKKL
Sequence of USP1/UAF1 enzyme (Q8TAF3 whole entry partner): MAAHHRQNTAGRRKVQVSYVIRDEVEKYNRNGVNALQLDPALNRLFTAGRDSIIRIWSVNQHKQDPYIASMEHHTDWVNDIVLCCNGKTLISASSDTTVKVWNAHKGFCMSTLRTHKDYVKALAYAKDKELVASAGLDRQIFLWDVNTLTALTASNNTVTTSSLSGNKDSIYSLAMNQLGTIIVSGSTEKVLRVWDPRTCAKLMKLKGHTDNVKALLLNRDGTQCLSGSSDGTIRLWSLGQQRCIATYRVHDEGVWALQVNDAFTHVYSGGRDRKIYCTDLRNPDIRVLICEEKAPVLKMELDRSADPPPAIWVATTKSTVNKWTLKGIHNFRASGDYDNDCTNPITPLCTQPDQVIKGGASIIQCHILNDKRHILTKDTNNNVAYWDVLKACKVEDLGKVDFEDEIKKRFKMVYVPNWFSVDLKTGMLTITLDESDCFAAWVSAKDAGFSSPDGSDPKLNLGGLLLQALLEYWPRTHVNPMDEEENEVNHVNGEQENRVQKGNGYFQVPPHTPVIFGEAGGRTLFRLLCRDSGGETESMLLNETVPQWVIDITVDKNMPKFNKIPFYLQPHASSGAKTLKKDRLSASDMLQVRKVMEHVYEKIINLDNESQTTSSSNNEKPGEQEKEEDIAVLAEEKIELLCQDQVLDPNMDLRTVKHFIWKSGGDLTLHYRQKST

Consider `CCn1cc(C(F)(F)F)nc1-c1ccc(NC2CCCn3nc(-c4c(Cl)cnn4C(C)C)cc32)cn1` (stereo not drawn) [Example 245, 2-(4-chloro-1-isopropyl-1H-pyrazol-5-yl)-N-(6-(1-ethyl-4-(trifluoromethyl)-1H-imidazol-2-yl)pyridin-3-yl)-4,5,6,7-tetrahydropyrazolo[1,5-a]pyridin-4-amine], for which the solubility at 24 h in data set [1] (setting [6]) and in data set [1] (setting [7]) was less than 10 µM throughout. In addition, the IC50 in data set [2] is less than 100 nM; in data set [3], 100 to 500 nM. The half-life at 1 μM in data set [4] and in data set [5] was greater than 25 min throughout.
As to `CCn1cc(C(F)(F)F)nc1-c1ccc(NC2CCCn3nc(-c4c(Cl)cnn4C(C)C)cc32)cc1OC` (stereo not drawn) [Example 246, 2-(4-chloro-1-isopropyl-1H-pyrazol-5-yl)-N-(4-(1-ethyl-4-(trifluoromethyl)-1H-imidazol-2-yl)-3-methoxyphenyl)-4,5,6,7-tetrahydropyrazolo[1,5-a]pyridin-4-amine], the solubility at 24 h in data set [1] (setting [6]) was no less than 10 µM; in data set [1] (setting [7]), less than 10 µM. Besides, the values for the IC50 in data set [2] and in data set [3] were less than 100 nM and 100 to 500 nM, respectively. In addition, the half-life at 1 μM in data set [4] and in data set [5] was greater than 25 min each time.
For the compound `CCn1cc(C#N)nc1-c1ccc(NC2CCCn3nc(-c4c(Cl)cnn4C(C)C)cc32)cc1` (stereo not drawn) [Example 247, 2-(4-((2-(4-chloro-1-isopropyl-1H-pyrazol-5-yl)-4,5,6,7-tetrahydropyrazolo[1,5-a]pyridin-4-yl)amino)phenyl)-1-ethyl-1H-imidazole-4-carbonitrile], the solubility at 24 h in data set [1] (setting [6]) and in data set [1] (setting [7]) was less than 10 µM throughout. Also, the IC50 in data set [2] is less than 100 nM; in data set [3], 100 to 500 nM. In addition, the half-life at 1 μM in data set [4] and in data set [5] was less than 25 min in each case.
`COc1ncnc(C2CC2)c1-c1cc2n(n1)CCCC2Nc1ccc(-c2nc(C(F)(F)F)cn2C(C)CF)cc1` (stereo not drawn) [Example 248, 2-(4-cyclopropyl-6-methoxypyrimidin-5-yl)-N-(4-(1-(1-fluoropropan-2-yl)-4-(trifluoromethyl)-1H-imidazol-2-yl)phenyl)-4,5,6,7-tetrahydropyrazolo[1,5-a]pyridin-4-amine]: the solubility at 24 h in data set [1] (setting [6]) and in data set [1] (setting [7]) was no less than 10 µM each time. Further, the IC50 in data set [2] and in data set [3] was less than 100 nM in each case. Moreover, the half-life at 1 μM in data set [4] and in data set [5] was greater than 25 min in each case.
In the case of `CC(CF)n1cc(C(F)(F)F)nc1-c1ccc(NC2CCCn3nc(-c4c(OC(F)F)ncnc4C4CC4)cc32)cc1` (stereo not drawn) [Example 249, 2-(4-cyclopropyl-6-(difluoromethoxy)pyrimidin-5-yl)-N-(4-(1-(1-fluoropropan-2-yl)-4-(trifluoromethyl)-1H-imidazol-2-yl)phenyl)-4,5,6,7-tetrahydropyrazolo[1,5-a]pyridin-4-amine], the solubility at 24 h in data set [1] (setting [6]) and in data set [1] (setting [7]) was less than 10 µM throughout. The IC50 in data set [2] and in data set [3] was less than 100 nM in each case. Also, the half-life at 1 μM in data set [4] and in data set [5] was greater than 25 min each time.
As for `CCn1cc(C(F)(F)F)nc1-c1ccc(NC2CCCn3nc(-c4c(OC(F)F)ncnc4C4CC4)cc32)cc1` (stereo not drawn) [Example 250, 2-(4-cyclopropyl-6-(difluoromethoxy)pyrimidin-5-yl)-N-(4-(1-ethyl-4-(trifluoromethyl)-1H-imidazol-2-yl)phenyl)-4,5,6,7-tetrahydropyrazolo[1,5-a]pyridin-4-amine], the solubility at 24 h in data set [1] (setting [6]) and in data set [1] (setting [7]) was less than 10 µM each time. Also, the half-inhibitory concentration (IC50) in data set [2] and in data set [3] was less than 100 nM in each case. The half-life at 1 μM in data set [4] and in data set [5] was greater than 25 min each time.
